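These data come from cells grown in 96-well plates and exposed to compound for 48 hours at five concentrations. At the TGI there is no net growth.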 Where a SMILES comes first, the peptide text is derived from it. [ ]: non-standard residue; d: D form. The star is where a group is joined. ξ: configuration not given here. Propanoyl(3-(4-MeO-Ph)) = COc1ccc(CCC(=O)*)cc1; Thr(3ξ) = CC(O)[C@H](N)C(=O)O; dNMeL = CN[C@H](CC(C)C)C(=O)O; ξLac = CC(O)C(=O)O
Key:
Assay in all cases: NCI tumour cell line growth inhibition, 48 h
SK-MEL-28 melanoma = tested on: SK-MEL-28 melanoma
K-562 leukemia = tested on: K-562 leukemia
KM12 colon = tested on: KM12 colon
SF-268 CNS = tested on: SF-268 CNS
CCRF-CEM leukemia = tested on: CCRF-CEM leukemia
SK-MEL-5 melanoma = tested on: SK-MEL-5 melanoma
BT-549 breast = tested on: BT-549 breast
TK-10 renal = tested on: TK-10 renal
HL-60(TB) leukemia = tested on: HL-60(TB) leukemia
HOP-62 NSCLC = tested on: HOP-62 NSCLC
UACC-257 melanoma = tested on: UACC-257 melanoma
UO-31 renal = tested on: UO-31 renal
HCT-116 colon = tested on: HCT-116 colon
COLO 205 colon = tested on: COLO 205 colon
T-47D breast = tested on: T-47D breast
RPMI-8226 leukemia = tested on: RPMI-8226 leukemia
ACHN renal = tested on: ACHN renal

SMILES | TGI (SK-MEL-28 melanoma) | TGI (K-562 leukemia) | TGI (KM12 colon) | TGI (SF-268 CNS) | TGI (CCRF-CEM leukemia) | TGI (SK-MEL-5 melanoma) | TGI (BT-549 breast) | TGI (TK-10 renal) | TGI (HL-60(TB) leukemia) | TGI (HOP-62 NSCLC) | TGI (UACC-257 melanoma) | TGI (UO-31 renal) | TGI (HCT-116 colon) | TGI (COLO 205 colon) | TGI (T-47D breast) | TGI (RPMI-8226 leukemia) | TGI (ACHN renal)
COC(=O)[C@@H](NC(=O)[C@@H](CC(C)C)N(C)C(=O)[C@@H]1CCCN1C(=O)C(C)O)C(C)OC(=O)CCc1ccc(OC)cc1 (stereo not given in full) (H-[ξLac]P[dNMeL][Thr(3ξ)](Propanoyl(3-(4-MeO-Ph)))-OMe) | > 100 µM | > 100 µM | > 100 µM | > 100 µM | > 100 µM | > 100 µM | > 100 µM | > 100 µM | > 100 µM | > 100 µM | > 100 µM | > 100 µM | > 100 µM | > 100 µM | > 100 µM | > 100 µM | > 100 µM
CSC1(SC)N2Cc3ccccc3N=C2C1(c1ccccc1)c1ccccc1 | > 59.5 µM | > 100 µM | > 35.6 µM | > 100 µM | > 65 µM | 28.8 µM | > 92.6 µM | > 100 µM | > 53.1 µM | > 100 µM | > 90.2 µM | > 100 µM | > 100 µM | 15.6 µM | > 100 µM | 97.1 µM | > 100 µM
COc1cc(/C=c2/c3ccccc3n3c2cc(-c2ccccc2)[n+]3C)cc(OC)c1OC | 19.1 µM | 15.4 µM | 3.67 µM | 22.9 µM | > 28.9 µM | 6.73 µM | 11.8 µM | 17.4 µM | 7.2 µM | 19.5 µM | 7.68 µM | > 35.9 µM | 6.96 µM | 3.22 µM | 19.3 µM | > 32.1 µM | 15 µM
CCOc1cc2c(cc1O)CC[C@@H]1[C@@H]2CC[C@]2(C)C(OS(=O)OC3CC[C@@H]4[C@H]5CCc6cc(O)c(OCC)cc6[C@@H]5CC[C@@]34C)CC[C@@H]12 (stereo not given in full) | 11.7 µM | > 55.6 µM | > 35.1 µM | > 100 µM | > 100 µM | 3.84 µM | 13.6 µM | > 100 µM | 0.929 µM | > 27 µM | > 42.8 µM | 27.4 µM | > 39.6 µM | > 53.7 µM | > 100 µM | 13.9 µM | > 81.7 µM
CCCC(=O)Nc1cc(/C=C/C(=O)N2CC(CCl)c3c2cc([N+](=O)[O-])c2ccccc32)n(C)c1 (stereo not given) | > 100 µM | > 100 µM | > 82.6 µM | > 100 µM | > 100 µM | > 100 µM | > 100 µM | > 100 µM | 27.2 µM | > 100 µM | > 100 µM | > 100 µM | > 100 µM | > 100 µM | > 100 µM | > 100 µM | > 100 µM
COC(=O)c1c(O)ccc2c1c1c(n2Cc2ccccn2)C(=O)c2ccccc2C1=O | 99.2 µM | > 100 µM | > 100 µM | > 100 µM | > 100 µM | > 100 µM | > 100 µM | > 100 µM | > 100 µM | 77.7 µM | > 100 µM | > 100 µM | > 100 µM | 34.3 µM | > 100 µM | > 100 µM | 58.1 µM
COc1ccc(-c2nnc(CCCCCCCCc3nnc(-c4ccc(OC)cc4)n3N)n2N)cc1 | > 100 µM | > 100 µM | > 100 µM | > 100 µM | > 100 µM | > 100 µM | > 100 µM | > 100 µM | > 100 µM | 65.8 µM | > 100 µM | > 100 µM | > 100 µM | > 100 µM | > 100 µM | > 100 µM | > 100 µM
COc1ccc(CCNC(=O)CCCCCO)cc1OC | > 100 µM | > 100 µM | > 100 µM | > 100 µM | > 100 µM | > 100 µM | > 100 µM | > 100 µM | > 100 µM | > 100 µM | > 100 µM | > 100 µM | > 100 µM | > 100 µM | > 100 µM | > 100 µM | > 100 µM
O=C(NN1C(=O)CSC1c1ccco1)c1ccncc1 (stereo not given) | > 100 µM | > 100 µM | > 100 µM | > 100 µM | > 100 µM | > 100 µM | > 100 µM | > 100 µM | > 100 µM | > 100 µM | > 100 µM | > 100 µM | > 100 µM | > 100 µM | > 100 µM | > 100 µM | > 100 µM
S=c1nc2sc3c(c2c(Nc2ccc(Br)cc2)[nH]1)CCN(N1CCc2c(sc4nc(=S)[nH]c(Nc5ccc(Br)cc5)c24)C1)C3 | 31 µM | > 50 µM | > 50 µM | > 50 µM | > 50 µM | > 50 µM | > 50 µM | > 50 µM | > 50 µM | > 50 µM | > 50 µM | > 50 µM | > 50 µM | > 50 µM | > 50 µM | > 50 µM | > 50 µM

Source: PubChem BioAssay (NCI)
